As usually defined, the GI50 is the concentration giving 50% growth inhibition. As a reminder, the inhibition is the change of the read-out against control, counted positive when it falls.

GI50 and inhibition data for eight compounds are collected here from ChEMBL document CHEMBL5532698, “2,3-Dihydroquinazolin-4(1H)-ones and quinazolin-4(3H)-ones as broad-spectrum cytotoxic agents and their impact on tubulin polymerisation” (RSC Med Chem, 2024).

Data set [1] concerns A2780. The experiment in a line: Antiproliferative activity against human A2780 cells assessed as cell growth inhibition incubated for 72 hrs by MTT assay. The format is functional. In general terms: Tetrazolium assays rely on reduction of a dye to a coloured formazan, in cell work by metabolically active cells.
Data set [2] deals with MCF7. The experiment in a line: Antiproliferative activity against human MCF7 cells assessed as cell growth inhibition incubated for 72 hrs by MTT assay. The format is functional.
Data set [3] can be described thus: Cytotoxicity against human MCF-10A cells assessed as cell growth inhibition incubated for 72 hrs by MTT assay. The format is toxicity, cell-based.
Data set [4] relates to DU-145. Nature of the data set: Antiproliferative activity against human DU-145 cells assessed as cell growth inhibition at 25 uM incubated for 72 hrs by MTT assay relative to control. It is filed as functional.
Data set [5] has as its system HT-29. Nature of the data set: Antiproliferative activity against human HT-29 cells assessed as cell growth inhibition incubated for 72 hrs by MTT assay. It is filed as functional.
Data set [6] relates to A-431. The experiment in a line: Antiproliferative activity against human A-431 cells assessed as cell growth inhibition at 25 uM incubated for 72 hrs by MTT assay relative to control. The format is functional.
Data set [7] concerns A2780. Nature of the data set: Antiproliferative activity against human A2780 cells assessed as cell growth inhibition at 25 uM incubated for 72 hrs by MTT assay relative to control. The format is functional.
The test system of data set [8] is DU-145. Nature of the data set: Antiproliferative activity against human DU-145 cells assessed as cell growth inhibition incubated for 72 hrs by MTT assay. It is filed as functional.
Data set [9] has as its system NCI-H460. The experiment in a line: Antiproliferative activity against human NCI-H460 cells assessed as cell growth inhibition incubated for 72 hrs by MTT assay. It is filed as functional.
Data set [10] relates to BE(2)-C. The experiment in a line: Antiproliferative activity against human BE2C cells assessed as cell growth inhibition at 25 uM incubated for 72 hrs by MTT assay relative to control. It is filed as functional.
Data set [11] relates to NCI-H460. Nature of the data set: Antiproliferative activity against human NCI-H460 cells assessed as cell growth inhibition at 25 uM incubated for 72 hrs by MTT assay relative to control. The format is functional.
Data set [12] relates to MCF7. The experiment in a line: Antiproliferative activity against human MCF7 cells assessed as cell growth inhibition at 25 uM incubated for 72 hrs by MTT assay relative to control. It is filed as functional.
The nature of data set [13]: Antiproliferative activity against human SJG2 cells assessed as cell growth inhibition incubated for 72 hrs by MTT assay. The format is functional. Conditions: SJ-G2.
Data set [14] deals with U-87 MG. Nature of the data set: Antiproliferative activity against human U87 cells assessed as cell growth inhibition at 25 uM incubated for 72 hrs by MTT assay relative to control. It is filed as functional, U-87MG ATCC.
Data set [15] deals with MIA PaCa-2. The experiment in a line: Antiproliferative activity against human MIA PaCa-2 cells assessed as cell growth inhibition at 25 uM incubated for 72 hrs by MTT assay relative to control. It is filed as functional.
Data set [16] relates to U-87 MG. Nature of the data set: Antiproliferative activity against human U87 cells assessed as cell growth inhibition incubated for 72 hrs by MTT assay. The format is functional, U-87MG ATCC.
In data set [17] the test system is A-431. Nature of the data set: Antiproliferative activity against human A-431 cells assessed as cell growth inhibition incubated for 72 hrs by MTT assay. The format is functional.
A short description of data set [18]: Antiproliferative activity against human SJG2 cells assessed as cell growth inhibition at 25 uM incubated for 72 hrs by MTT assay relative to control. It is filed as functional. As to conditions: SJ-G2.
Data set [19] relates to BE(2)-C. Nature of the data set: Antiproliferative activity against human BE2C cells assessed as cell growth inhibition incubated for 72 hrs by MTT assay. It is filed as functional.
Data set [20] relates to MIA PaCa-2. The experiment in a line: Antiproliferative activity against human MIA PaCa-2 cells assessed as cell growth inhibition incubated for 72 hrs by MTT assay. It is filed as functional.
Data set [21] can be described thus: Cytotoxicity against human MCF-10A cells assessed as cell growth inhibition at 25 uM incubated for 72 hrs by MTT assay relative to control. It is filed as toxicity, cell-based.
Data set [22] has as its system HT-29. The experiment in a line: Antiproliferative activity against human HT-29 cells assessed as cell growth inhibition at 25 uM incubated for 72 hrs by MTT assay relative to control. It is filed as functional.

A value given as a limit tells only on which side of the number the result lay.

In the case of `O=C1NC(c2ccc(O)cc2)Nc2ccccc21` (stereo unspecified), the GI50 in data set [1] was found to be 3.2 µM; in data set [2], 12 µM; in data set [5] it was 3.7 µM; in data set [8], 10 µM; in [9] it was 10 µM; in data set [13] it was 8.9 µM. Besides, the GI50 turned out to be 16 µM in [16], 3.2 µM in [17], 4.1 µM in data set [19] and 8.8 µM in data set [20]. Further, in data set [3], the 50% growth inhibitory concentration (GI50) at 72 h was 9.9 µM. For the same compound, the inhibition at 25 µM in data set [4] turned out to be 90%; in data set [6], 108%; in [7] it was 95%; in data set [10], 100%; in data set [11], 88%; in [12], 55%. Moreover, the inhibition at 25 µM is 72% in data set [14], 84% in [15], greater than 100% in data set [18] and greater than 100% in data set [22]. Besides, the inhibition at 72 h, 25 µM in [21] amounted to 91%.
As to `O=C1NC(c2cc3ccccc3o2)Nc2ccccc21` (stereo unspecified), the GI50 in [1] turned out to be 2.9 µM; in data set [2], 3.3 µM; in data set [5] it was 2.6 µM; in data set [8], 4.8 µM; in data set [9], 3.1 µM; in data set [13], 3 µM. The GI50 in data set [16] turned out to be 4.1 µM; in data set [17] it was 2.7 µM; in [19], 3.1 µM; in [20] it was 3.5 µM. The GI50 at 72 h in data set [3] was found to be 3.9 µM. For the same compound, the inhibition at 25 µM is no less than 28% in data set [4]; no less than 75% in data set [6]; no less than 57% in data set [7]; 66% in data set [10]; 77% in [11]; 63% in [12]. The inhibition at 25 µM is 47% in data set [14], 76% in [15], no less than 71% in data set [18] and no less than 92% in data set [22]. In data set [21], the inhibition at 72 h, 25 µM worked out at 76%.
`O=C1NC(c2cccc(O)c2)Nc2ccccc21` (stereo unspecified): the GI50 in data set [1] amounted to 3 µM; in data set [2] it was 13 µM; in data set [5], 6.3 µM; in data set [8], 16 µM; in data set [9], 14 µM; in data set [13] it was 12 µM. Further, the concentration for 50% growth inhibition (GI50) in data set [16] stood at 19 µM; in [17], 3.7 µM; in data set [19] it was 6.4 µM; in [20], 15 µM. Further, in data set [3], the GI50 at 72 h stood at 14 µM. Moreover, the inhibition at 25 µM in data set [4] is 72%; in data set [6] it was greater than 100%; in [7], 95%; in data set [10], 97%; in [11] it was 94%; in data set [12], 66%. The inhibition at 25 µM is 65% in [14], 86% in data set [15], greater than 100% in data set [18] and greater than 100% in [22]. The inhibition at 72 h, 25 µM in data set [21] stood at 92%.
On to `O=C1NC(c2cccs2)Nc2ccccc21` (stereo unspecified), for which the GI50 in [1] stood at 4.7 µM; in data set [2], 11 µM; in data set [5], 7.6 µM; in data set [8] it was 25 µM; in data set [9] it was 15 µM; in data set [13] it was 23 µM. Moreover, the GI50 in data set [16] was found to be 23 µM; in data set [17], 7.4 µM; in data set [19], 9.3 µM; in [20], 18 µM. Besides, in data set [3], the GI50 at 72 h was found to be 15 µM. For the same compound, the inhibition at 25 µM in data set [4] was 57%; in data set [6] it was greater than 100%; in data set [7] it was 98%; in data set [10], 91%; in [11] it was 88%; in [12], 91%. Also, the inhibition at 25 µM amounted to 56% in data set [14], 74% in data set [15], 60% in data set [18] and 90% in [22]. In addition, the inhibition at 72 h, 25 µM in data set [21] was 84%.
In the case of `O=C1NC(c2cccc(C(F)(F)F)c2)Nc2ccccc21` (stereo unspecified), the GI50 in [1] came to 2.9 µM; in data set [2], 5.6 µM; in data set [5], 2.9 µM; in data set [8], 3 µM; in data set [9] it was 3.2 µM; in data set [13], 3.3 µM. Moreover, the GI50 in data set [16] is 3.2 µM; in data set [17], 2.7 µM; in [19] it was 3.1 µM; in data set [20], 4.4 µM. Moreover, in data set [3], the GI50 at 72 h was determined as 3.1 µM. Also, the inhibition at 25 µM was greater than 100% in data set [4]; greater than 100% in [6]; 100% in [7]; greater than 100% in data set [10]; 100% in [11]; 83% in data set [12]. Moreover, the inhibition at 25 µM in [14] is greater than 100%; in data set [15] it was 95%; in data set [18], greater than 100%; in [22] it was greater than 100%. For the same compound, in data set [21], the inhibition at 72 h, 25 µM was greater than 100%.
With `O=C1NC(c2cccc([N+](=O)[O-])c2)Nc2ccccc21` (stereo unspecified), the 50% growth inhibitory concentration (GI50) is 18 µM in data set [1]; 6.7 µM in data set [2]; 17 µM in data set [5]; 45 µM in [8]; 24 µM in [9]; 22 µM in [13]. Moreover, the GI50 was greater than 50 µM in [16], 20 µM in [17], 19 µM in [19] and 20 µM in data set [20]. The 50% growth inhibitory concentration (GI50) at 72 h in data set [3] was 21 µM. In addition, the inhibition at 25 µM is 33% in data set [4]; 67% in data set [6]; 69% in data set [7]; 58% in [10]; 59% in [11]; greater than 100% in data set [12]. Further, the inhibition at 25 µM worked out at 20% in [14], 56% in data set [15], 61% in [18] and 78% in [22]. Moreover, the inhibition at 72 h, 25 µM in data set [21] worked out at 54%.
With `O=c1[nH]c(/C=C/c2cccc(O)c2)nc2ccccc12`, the GI50 in data set [1] was 3.1 µM; in data set [2] it was 1.3 µM; in data set [5], 5.9 µM; in data set [8], 1.9 µM; in data set [9], 2.6 µM; in data set [13], 2.5 µM. The concentration for 50% growth inhibition (GI50) in [16] is 8.9 µM; in [17] it was 3 µM; in data set [19] it was 1.8 µM; in [20] it was 2.9 µM. The GI50 at 72 h in data set [3] turned out to be 3.1 µM. The inhibition at 25 µM in [4], in [6], in [7], in data set [10], in data set [11] and in [12] was greater than 100% throughout. Further, the inhibition at 25 µM in data set [14] is 73%; in data set [15] it was greater than 100%; in data set [18], greater than 100%; in data set [22], greater than 100%. The inhibition at 72 h, 25 µM in data set [21] turned out to be 97%.
Take `O=C1NC(c2ccc3ccccc3c2)Nc2ccccc21` (stereo unspecified): the GI50 in data set [1] was found to be 2.9 µM; in data set [2], 2.8 µM; in data set [5], 2.7 µM; in data set [8] it was 4.2 µM; in [9], 2.9 µM; in data set [13] it was 2.8 µM. For the same compound, the GI50 in [16] was 5 µM; in [17], 3 µM; in [19], 2.9 µM; in data set [20], 2.8 µM. In addition, in [3], the GI50 at 72 h was determined as 3.5 µM. Further, the inhibition at 25 µM in [4] is greater than 100%; in data set [6], greater than 100%; in [7], greater than 100%; in data set [10], 98%; in data set [11] it was 100%; in data set [12], 135%. The inhibition at 25 µM in data set [14] is 94%; in [15], greater than 100%; in [18] it was greater than 100%; in data set [22] it was greater than 100%. Besides, in data set [21], the inhibition at 72 h, 25 µM amounted to 99%.
